From PubChem BioAssay (NCI)
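Five concentrations, 48 hours, 96-well plates. The concentration for 50% growth inhibition is given as GI50. TGI: total growth inhibition.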

Assays:
Assay in all cases: inhibition of tumour cell growth, NCI panel, 48 h
[1] = system: UACC-62 melanoma
[2] = system: OVCAR-5 ovarian
[3] = system: SR leukemia
[4] = system: CCRF-CEM leukemia
[5] = system: U251 CNS
[6] = system: MDA-MB-231 breast
[7] = system: NCI-H23 lung
[8] = system: RPMI-8226 leukemia
[9] = system: NCI/ADR-RES ovarian
[10] = system: HOP-62 NSCLC

SMILES: CCOC(=O)C1(C(F)(F)F)N=C(CC)OC(N2CCOCC2)=N1 (configuration not stated)
- TGI [1]: > 100 µM
- TGI [2]: > 100 µM
- TGI [3]: > 100 µM
- TGI [4]: > 100 µM
- TGI [5]: > 100 µM
- TGI [6]: > 100 µM
- TGI [7]: > 100 µM
- TGI [8]: > 100 µM
- TGI [9]: > 100 µM

SMILES: COc1ccc(CCN2CCc3c(C)c(C#N)c4nc5ccccc5n4c32)cc1OC
- TGI [1]: 95.3 µM
- TGI [2]: > 100 µM
- TGI [4]: > 100 µM
- TGI [5]: > 100 µM
- TGI [10]: > 100 µM
- TGI [6]: 86.1 µM
- TGI [7]: > 100 µM
- TGI [9]: > 100 µM

SMILES: O=[N+]([O-])c1cccnc1-n1cnc2ccccc21
- TGI [1]: > 100 µM
- TGI [2]: > 100 µM
- TGI [3]: > 100 µM
- TGI [4]: > 100 µM
- TGI [5]: > 100 µM
- TGI [10]: > 100 µM
- TGI [6]: > 100 µM
- TGI [8]: > 100 µM
- TGI [9]: > 100 µM

SMILES: COc1ccc2nc3n(c2c1)CCc1cc(OC)c(OC)cc1-3
- TGI [1]: > 100 µM
- TGI [2]: > 100 µM
- TGI [4]: > 100 µM
- TGI [5]: > 100 µM
- TGI [10]: > 100 µM
- TGI [6]: > 100 µM
- TGI [7]: > 100 µM
- TGI [9]: > 100 µM

SMILES: CC(C)(C)C1CC[C@H](O)[C@H]([C@H](O)CC2CC(=O)N(c3ccccc3)C(=O)C2)C1 (some centres not stated)
- TGI [1]: > 100 µM
- TGI [2]: > 100 µM
- TGI [3]: > 100 µM
- TGI [4]: > 100 µM
- TGI [5]: > 100 µM
- TGI [10]: > 100 µM
- TGI [6]: > 100 µM
- TGI [7]: > 100 µM
- TGI [9]: > 100 µM

SMILES: CC(=O)Nc1cc(Nc2cc(=O)[nH]c(=O)[nH]2)ccc1C
- TGI [2]: > 100 µM
- TGI [3]: > 100 µM
- TGI [4]: > 100 µM
- TGI [5]: > 100 µM
- TGI [10]: > 100 µM
- TGI [6]: > 100 µM
- TGI [8]: > 100 µM
- TGI [9]: > 100 µM

SMILES: C=CC1CN2CCC1CC2C(O)c1ccnc2ccccc12 (configuration not stated)
- TGI [1]: > 100 µM
- TGI [2]: > 100 µM
- GI50 [3]: > 100 µM
- TGI [3]: > 100 µM
- GI50 [4]: > 100 µM
- TGI [4]: > 100 µM
- TGI [5]: > 100 µM
- GI50 [10]: > 100 µM
- TGI [10]: > 100 µM
- TGI [6]: > 100 µM
- TGI [7]: > 100 µM
- TGI [9]: > 100 µM

SMILES: CCN(CC)c1ccc2cc(-c3nc4ccccc4c(=O)[nH]3)c(=N)oc2c1
- TGI [1]: > 100 µM
- TGI [2]: > 100 µM
- TGI [3]: > 100 µM
- TGI [4]: > 100 µM
- TGI [5]: > 100 µM
- TGI [10]: > 100 µM
- TGI [6]: > 100 µM
- TGI [8]: > 100 µM
- TGI [9]: > 100 µM

SMILES: CN(C)c1ccc(/C=C2\N=C(c3ccccc3)N(c3ccc4c(c3)Sc3cc(N5C(=O)/C(=C/c6ccc(N(C)C)cc6)N=C5c5ccccc5)ccc3N4)C2=O)cc1
- TGI [1]: 33.7 µM
- TGI [2]: 40.8 µM
- TGI [3]: > 100 µM
- TGI [4]: 20.1 µM
- TGI [5]: 29 µM
- TGI [10]: 32.1 µM
- TGI [6]: 41.5 µM
- TGI [8]: 51.4 µM
- TGI [9]: 89.2 µM

SMILES: CC1(C2CCC3(C)OC3C2)CO1 (configuration not stated)
- TGI [1]: > 100 µM
- TGI [2]: > 100 µM
- TGI [3]: > 100 µM
- TGI [4]: > 100 µM
- TGI [5]: > 100 µM
- TGI [10]: > 100 µM
- TGI [7]: > 100 µM
- TGI [8]: > 100 µM

SMILES: Cc1ccc(S(=O)(=O)n2cc(C#N)c(C#N)c2)cc1
- TGI [1]: 33.7 µM
- TGI [2]: 81.2 µM
- TGI [3]: 71 µM
- TGI [4]: 92.1 µM
- TGI [5]: > 100 µM
- TGI [10]: 68.8 µM
- TGI [6]: > 100 µM
- TGI [7]: 91.3 µM
- TGI [9]: > 100 µM

SMILES: Nc1ncnc2c1ncn2Cc1cccc(CCl)c1
- TGI [1]: 25.8 µM
- TGI [2]: 32.1 µM
- TGI [3]: 46 µM
- TGI [5]: 32.5 µM
- TGI [10]: 30.5 µM
- TGI [6]: 34 µM
- TGI [7]: 36.5 µM
- TGI [8]: 44.5 µM
- TGI [9]: 50.8 µM

SMILES: CC(=O)O[C@H]1CC[C@@]2(C)[C@H](CC[C@@H]3[C@@H]2CC[C@]2(C)[C@@H](c4ccc(=O)oc4)C[C@H]4O[C@]342)C1
- TGI [1]: 3.46 µM
- TGI [2]: 12.2 µM
- TGI [4]: 1.52 µM
- TGI [5]: 4.6 µM
- TGI [10]: 2.06 µM
- TGI [7]: 1.83 µM
- TGI [8]: 5.1 µM
- TGI [9]: 3.82 µM

SMILES: CO[C@]1(CN2CCN3CCCC[C@@H]3C2)/C=C/C[C@H](C)[C@@H](C)S(=O)(=O)NC(=O)c2ccc3c(c2)N(C[C@@H]2CC[C@H]21)C[C@@]1(CCCc2cc(Cl)ccc21)CO3
- GI50 [1]: 0.148 µM
- TGI [1]: 1.22 µM
- GI50 [2]: 1.93 µM
- TGI [2]: 3.8 µM
- GI50 [4]: 1.44 µM
- TGI [4]: 13.3 µM
- GI50 [6]: 1.78 µM
- TGI [6]: 3.27 µM
- GI50 [7]: 1.03 µM
- TGI [7]: 2.29 µM
- GI50 [8]: 0.0185 µM
- TGI [8]: 41.8 µM

SMILES: CCOP(=O)(OCC)/C(C#N)=C/c1cccn1Cc1ccccc1
- TGI [1]: 55 µM
- TGI [2]: > 100 µM
- TGI [3]: > 100 µM
- TGI [4]: > 100 µM
- TGI [5]: 57.9 µM
- TGI [10]: > 100 µM
- TGI [6]: 57.5 µM
- TGI [7]: > 100 µM
- TGI [9]: > 100 µM

SMILES: CC(C)OC1OC(CO)C(O)CC1n1cc(F)c(=O)[nH]c1=O (configuration not stated)
- TGI [1]: > 100 µM
- TGI [2]: > 100 µM
- TGI [5]: > 100 µM
- TGI [6]: > 100 µM
- TGI [7]: > 100 µM
- TGI [8]: > 100 µM
- TGI [9]: > 100 µM

SMILES: CN(C)C(=S)Oc1ccc2ccc(=O)oc2c1
- TGI [1]: > 100 µM
- TGI [2]: > 100 µM
- TGI [3]: > 100 µM
- TGI [5]: > 100 µM
- TGI [10]: > 100 µM
- TGI [6]: > 100 µM
- TGI [7]: > 100 µM
- TGI [8]: > 100 µM
- TGI [9]: > 100 µM

SMILES: C/C(=N\Nc1nc2ccccc2[nH]1)c1cc2ccccc2cn1
- TGI [1]: 1.09 µM
- TGI [2]: 2.5 µM
- TGI [3]: > 100 µM
- TGI [4]: 5.65 µM
- TGI [5]: 0.863 µM
- TGI [6]: 1.97 µM
- TGI [7]: 1.64 µM
- TGI [8]: 0.599 µM
- TGI [9]: 1.16 µM

SMILES: CC(=O)CC(=O)CCC(=O)O
- TGI [2]: > 100 µM
- TGI [3]: > 100 µM
- TGI [5]: > 100 µM
- TGI [7]: > 100 µM

SMILES: NCCC1CN(C(=O)OCc2ccccc2)c2ccccc21 (configuration not stated)
- TGI [1]: 33.2 µM
- TGI [2]: 45.4 µM
- TGI [3]: 10.1 µM
- TGI [5]: 32.4 µM
- TGI [10]: > 54.4 µM
- TGI [6]: 46.6 µM
- TGI [7]: 41.8 µM
- TGI [8]: 46.6 µM
- TGI [9]: 36.7 µM

SMILES: NC(=O)Cc1nc2c(=O)[nH]cnc2n1C1OC(CO)C(O)C1O (configuration not stated)
- TGI [1]: > 100 µM
- TGI [2]: > 100 µM
- TGI [4]: > 100 µM
- TGI [5]: > 100 µM
- TGI [10]: > 100 µM
- TGI [6]: > 100 µM
- TGI [7]: > 100 µM
- TGI [8]: > 100 µM
- TGI [9]: > 100 µM

SMILES: CCN(CC)c1nc(N(C)C)c2ccccc2n1
- TGI [1]: 56.1 µM
- TGI [2]: > 100 µM
- TGI [3]: 27.5 µM
- TGI [5]: > 100 µM
- TGI [10]: > 100 µM
- TGI [6]: > 100 µM
- TGI [7]: > 100 µM
- TGI [8]: 40.6 µM
- TGI [9]: > 100 µM
